Read-outs that look alike come from different tables or passages of the source.
Key:
HT-29 cells = assay: Inhibition test for sphere formation assay of cancer cells; format: cell-based; conditions: for IC50: sphere culture (ultra-low attachment, serum-free), 4 days, CellTiter-Glo, read-out: Sphere IC50 value (concentration for 50% inhibition of cell proliferation); for activity for inhibiting cell proliferation in the sphere culture condition: summary in words
Experimental: Reliable methods established for measuring the self-renewal ability of cells which is one of the CSC's properties include a method for measuring the sphere-forming ability of cancer cells in non-adherent condition in the absence of serum (Cancer Res 65, 5506-5511 (2005)). HT-29 cells were available from American Type Culture Collection (ATCC). HT-29 cells were cultured at 37° C. under 5% CO2 using the McCoy's 5a medium containing 10% fetal bovine serum (FBS) and 1% penicillin/streptomycin. HT-29 cells were seeded in a 384 Well Black Clear Bottom Ultra-Low Attachment Microplate (Corning Cat. No. 3827) in an amount of 350-800 cells/well using the DMEM/F12 medium containing 2% B27 supplement (GIBCO), 20 ng/mL epidermal growth factor (EGF) (peprotech), 10 ng/mL basic fibroblast growth factor (bFGF) (peprotech), 5 μg/mL insulin (Sigma), and 1% penicillin/streptomycin. Each test compound was added into each well to adjust the final concentration of DMSO to 0.1%, and the cells were cultured for 4 days. The number of viable cells in each well was then measured with CellTiter-Glo™ Luminescent Cell Viability Assay (Promega) to calculate the concentration of each test compound for 50% inhibition of cell proliferation (Sphere IC50 value; […])
The experiment of Test 1 was performed for each compound of each Example. The concentration of each test compound for 50% inhibition of cell proliferation (Sphere IC50 value; μmol/L) is shown in the following Table.

hERG = hERG (Homo sapiens (Human), UniProt Q12809); assay: Test for evaluating hERG inhibition (QPatch HT, CHO cell strain stably expressing hERG); conditions: for hERG/HT-29: hERG IC50 (Test 2) divided by HT-29 sphere IC50 (Test 1); for deviation between the concentration of inhibiting 50% cell proliferation and the concentration of inhibiting 50% hERG current: summary in words of hERG/HT-29
Experimental: To a cultured CHO cell strain which stably expresses hERG was added each test compound to adjust the final concentration of DMSO to 0.0135 to 0.5%. The hERG current was measured with QPatch HT (Sophion Inc.), and the concentration at which 50% of the hERG current was inhibited by each test compound (IC50 value; μM) was calculated.
The compounds of Examples were tested according to Test 2. And, the hERG/HT-29 was calculated by dividing the compound concentration obtained in Test 2 (50% of the hERG current is inhibited) by the compound concentration obtained in Test 1 (50% of the proliferation of HT-29 cells is inhibited).

[1] = read-out: Binding inhibition (IC50, μM), concentration at which 50% of the hERG current was inhibited, CHO cells stably expressing hERG, QPatch HT

Chain of hERG (Q12809 whole entry): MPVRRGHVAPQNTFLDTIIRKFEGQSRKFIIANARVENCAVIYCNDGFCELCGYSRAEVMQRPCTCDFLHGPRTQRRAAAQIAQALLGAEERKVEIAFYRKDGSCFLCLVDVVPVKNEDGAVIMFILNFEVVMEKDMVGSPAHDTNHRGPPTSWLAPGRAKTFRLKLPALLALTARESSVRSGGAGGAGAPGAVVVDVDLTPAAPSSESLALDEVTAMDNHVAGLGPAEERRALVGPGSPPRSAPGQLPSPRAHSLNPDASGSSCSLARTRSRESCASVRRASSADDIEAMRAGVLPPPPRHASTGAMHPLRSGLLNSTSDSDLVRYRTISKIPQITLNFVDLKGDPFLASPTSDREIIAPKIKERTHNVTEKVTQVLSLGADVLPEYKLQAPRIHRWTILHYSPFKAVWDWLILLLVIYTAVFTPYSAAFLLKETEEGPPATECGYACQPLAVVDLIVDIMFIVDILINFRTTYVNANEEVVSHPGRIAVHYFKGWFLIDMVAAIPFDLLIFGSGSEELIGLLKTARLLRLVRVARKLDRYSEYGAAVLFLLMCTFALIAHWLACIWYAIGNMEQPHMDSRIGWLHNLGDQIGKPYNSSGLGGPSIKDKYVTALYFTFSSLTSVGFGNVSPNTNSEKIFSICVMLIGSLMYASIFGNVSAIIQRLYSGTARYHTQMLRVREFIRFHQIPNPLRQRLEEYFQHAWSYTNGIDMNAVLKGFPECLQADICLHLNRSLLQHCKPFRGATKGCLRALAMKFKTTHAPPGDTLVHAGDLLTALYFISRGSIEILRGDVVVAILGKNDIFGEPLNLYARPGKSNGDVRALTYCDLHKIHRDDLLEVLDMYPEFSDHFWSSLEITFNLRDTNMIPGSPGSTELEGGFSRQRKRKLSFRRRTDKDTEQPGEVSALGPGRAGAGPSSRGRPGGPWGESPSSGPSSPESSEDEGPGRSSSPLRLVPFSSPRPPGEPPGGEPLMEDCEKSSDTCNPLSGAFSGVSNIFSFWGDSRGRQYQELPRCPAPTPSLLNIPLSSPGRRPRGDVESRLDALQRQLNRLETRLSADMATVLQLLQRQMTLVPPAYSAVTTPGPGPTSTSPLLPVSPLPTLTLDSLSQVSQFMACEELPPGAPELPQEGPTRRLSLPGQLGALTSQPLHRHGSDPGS

| IC50 (HT-29 cells) [µM] | SMILES | activity for inhibiting cell proliferation in the sphere culture condition (HT-29 cells) | hERG/HT-29 (hERG) | IC50 (hERG; [1]) [µM] | deviation between the concentration of inhibiting 50% cell proliferation and the concentration of inhibiting 50% hERG current (hERG) | IC50 (HT-29 cells; Homo sapiens, 96 h) [µM] | IC50 (hERG) [µM] |
| --- | --- | --- | --- | --- | --- | --- | --- |
| < 0.01 | Cc1nc[nH]c1CN1CCC2(CC1)COC1c3ccc(Cl)cc3OCC1C2 (single isomer, unassigned) [Example 64a] | potent activity | >60 | 0.6 | good deviation | – | – |
| 2.28 | Cc1nc(CN2CCC3(CC2)COC2c4cc(Cl)ccc4OC(C)(C)C2C3)c[nH]1 (stereo not shown) [Example 30] | – | 7.46 | 1.7 | – | – | – |
| 0.04 | Cn1ccnc1CN1CCC2(CC1)COC1c3cc(Cl)ccc3OC(C)(C)C1C2 (stereo not shown) [Example 36] | – | – | – | – | – | – |
| < 0.01 | Cc1nccn1CCN1CCC2(CC1)COC1c3ccc(Cl)cc3OC(C)(C)C1C2 (stereo not shown) [Example 49] | potent activity | >140 | 1.4 | good deviation | – | – |
| < 0.01 | Cc1c(CO)ncn1CCN1CCC2(CC1)COC1c3cc(Cl)ccc3OC(C)(C)C1C2 (stereo not shown) [Example 56] | potent activity | >80 | 0.8 | good deviation | – | – |
| 0.21 | CC1(C)Oc2ccc(Cl)cc2C2OCC3(CCN(Cc4ncc[nH]4)CC3)CC21 (stereo not shown) [Example 35] | – | 16.7 | 3.5 | – | – | – |
| < 0.01 | CC1(C)Oc2ccc(Cl)cc2C2OCC3(CCN(CCn4ccnc4CO)CC3)CC21 (stereo not shown) [Example 53] | potent activity | – | – | – | – | – |
| 0.06 | Cn1cncc1CN1CCC2(CC1)COC1c3cc(F)ccc3OC(C)(C)C1C2 (stereo not shown) [Example 31] | – | 23.3 | 1.4 | – | – | – |
| 0.98 | COC(=O)c1cn(CCN2CCC3(CC2)COC2c4cc(Cl)ccc4OC(C)(C)C2C3)cn1 (stereo not shown) [Example 59] | – | – | – | – | – | – |
| < 0.01 | CC1(C)Oc2cc(Cl)ccc2C2OCC3(CCN(CCn4ccnc4CO)CC3)CC21 (stereo not shown) [Example 54] | potent activity | >140 | 1.4 | good deviation | – | – |
| < 0.01 | CC1(C)Oc2ccc(F)cc2C2OCC3(CCN(CCn4ccnc4CO)CC3)CC21 (stereo not shown) [Example 52] | potent activity | – | – | – | – | – |
| 0.05 | Cc1nc[nH]c1CN1CCC2(CC1)COC1c3ccc(Cl)cc3OCC1C2 (single isomer, unassigned) [Example 64b] | – | – | < 0.3 | – | – | – |
| 0.81 | CC1(C)Oc2ccc(Cl)cc2C2OCC3(CCN(Cc4c[nH]cn4)CC3)CC21 (stereo not shown) [Example 29] | – | 3.21 | 2.6 | – | – | – |
| 0.09 | CCc1nc(C)c(CN2CCC3(CC2)COC2c4cc(Cl)ccc4OC(C)(C)C2C3)[nH]1 (stereo not shown) [Example 28] | – | – | – | – | – | – |

The next lines start with the compound.

| SMILES | IC50 (HT-29 cells) [µM] | activity for inhibiting cell proliferation in the sphere culture condition (HT-29 cells) | hERG/HT-29 (hERG) | IC50 (hERG; [1]) [µM] | deviation between the concentration of inhibiting 50% cell proliferation and the concentration of inhibiting 50% hERG current (hERG) | IC50 (HT-29 cells; Homo sapiens, 96 h) [µM] | IC50 (hERG) [µM] |
| --- | --- | --- | --- | --- | --- | --- | --- |
| Cc1nc[nH]c1CN1CCC2(CC1)COC1c3cc(Cl)ccc3OC(C)(C)C1C2 (stereo not shown) [Example 24] | 0.09 | – | 42.2 | 3.8 | – | – | – |
| Cc1nccn1CC(=O)N1CCC2(CC1)COC1c3cc(Cl)ccc3OC(C)(C)C1C2 (single isomer, unassigned) [Example 4] | 0.31 | – | – | < 0.3 | – | – | – |
| Cc1nccn1CC(=O)N1CCC2(CC1)COC1c3cc(Br)ccc3OC(C)(C)C1C2 (stereo not shown) [Example 7] | 0.09 | – | – | < 0.3 | – | – | – |
| CC1(C)Oc2ccc(F)cc2C2OCC3(CCN(CCn4ccnc4)CC3)CC21 (stereo not shown) [Example 39] | < 0.01 | potent activity | >100 | 1 | good deviation | – | – |
| Cc1nc[nH]c1CN1CCC2(CC1)COC1c3cc(F)ccc3OC(C)(C)C1C2 (stereo not shown) [Example 22] | 0.24 | – | 6.67 | 1.6 | – | – | – |
| Cc1nccn1CC(=O)N1CCC2(CC1)COC1c3cccc(Br)c3OC(C)(C)C1C2 (stereo not shown) [Example 9] | 0.77 | – | – | < 0.3 | – | – | – |
| CC1(C)Oc2ccc(Cl)cc2C2OCC3(CCN(C(=O)Cn4cnc(CF)c4)CC3)CC21 (stereo not shown) [Example 16] | 4.4 | – | – | – | – | – | – |
| CC1(C)Oc2cc(Cl)ccc2C2OCC3(CCN(CCn4ccnc4)CC3)CC21 (stereo not shown) [Example 42] | < 0.01 | potent activity | >140 | 1.4 | good deviation | – | – |
| Cc1nccn1CC(=O)N1CCC2(CC1)COC1c3cccc(Cl)c3OC(C)(C)C1C2 (stereo not shown) [Example 6] | 0.61 | – | – | < 0.3 | – | – | – |
| Cn1cncc1CN1CCC2(CC1)COC1c3cccc(Cl)c3OC(C)(C)C1C2 (stereo not shown) [Example 34] | < 0.01 | potent activity | >140 | 1.4 | good deviation | – | – |
| Cc1nccn1CCN1CCC2(CC1)COC1c3cc(Cl)ccc3OC(C)(C)C1C2 (stereo not shown) [Example 47] | < 0.01 | potent activity | >190 | 1.9 | good deviation | – | – |
| Cc1nccn1CC(=O)N1CCC2(CC1)COC1c3cc(N=[N+]=[N-])ccc3OC(C)(C)C1C2 (stereo not shown) [Example 10] | 0.24 | – | – | < 0.3 | – | – | – |
| Cc1nc[nH]c1CN1CCC2(CC1)COC1c3ccc(Cl)cc3OC(C)(C)C1C2 (stereo not shown) [Example 20] | < 0.01 | potent activity | >140 | 1.4 | good deviation | – | – |
| CC1(C)Oc2cc(Cl)ccc2C2OCC3(CCN(CCn4ccnc4CCN)CC3)CC21 (stereo not shown) [Example 62] | – | – | – | 6.3 | – | – | – |
| Cc1nc[nH]c1CN1CCC2(CC1)COC1c3ccc(Cl)cc3OC(C)(C)C1C2 (racemic) [Example 18, Racemate of (4′aR,10′bR)-8′-chloro-5′,5′-dimethyl-1-[(4-methyl-1H-imidazol-5-yl)methyl]-4′a,10′b-dihydro-2′H,4′H,5′H-spiro[piperidine-4,3′-pyrano[3,2-c][1]benzopyran] and (4′aS,10′bS)-8′-chloro-5′,5′-dimethyl-1-[(4-methyl-1H-imidazol-5-yl)methyl]-4′a,10′b-dihydro-2′H,4′H,5′H-spiro[piperidine-4,3′-pyrano[3,2-c][1]benzopyran]] | – | – | 30 | – | – | 0.02 | 0.6 |
| Cc1nc[nH]c1CN1CCC2(CC1)COC1c3cc(Cl)ccc3OC(C)(C)C1C2 (stereo not shown) [Example 26] | < 0.01 | potent activity | >60 | 0.6 | good deviation | – | – |
| Cc1nc[nH]c1CN1CCC2(CC1)COC1c3ccc(Cl)cc3OCC1C2 (racemic) [Example 64, Racemate of (4′aS,10′bR)-8′-chloro-1-[(4-methyl-1H-imidazol-5-yl)methyl]-4′a,10′b-dihydro-2′H,4′H,5′H-spiro[piperidine-4,3′-pyrano[3,2-c][1]benzopyran] and (4′aR,10′bS)-8′-chloro-1-[(4-methyl-H-imidazol-5-yl)methyl]-4′a,10′b-dihydro-2′H,4′H,5′H-spiro[piperidine-4,3′-pyrano[3,2-c][1]benzopyran]] | – | – | 5.71 | – | – | 0.07 | 0.4 |
| Cc1nc[nH]c1CN1CCC2(CC1)COC1c3cccc(Cl)c3OC(C)(C)C1C2 (stereo not shown) [Example 27] | 0.35 | – | 1.14 | 0.4 | – | – | – |
| Cc1nc[nH]c1CN1CCC2(CC1)COC1c3cc(F)ccc3OC(C)(C)C1C2 (stereo not shown) [Example 21] | 0.21 | – | 7.14 | 1.5 | – | – | – |
| Cc1nc[nH]c1CN1CCC2(CC1)COC1c3cc(F)ccc3OC(C)(C)C1C2 (stereo not shown) [Example 23] | 0.06 | – | 23.3 | 1.4 | – | – | – |
| Cc1nccn1CCN1CCC2(CC1)COC1c3cc(Cl)ccc3OC(C)(C)C1C2 (stereo not shown) [Example 46] | – | – | >120 | 1.2 | good deviation | – | – |
| Cc1nc[nH]c1CN1CCC2(CC1)COC1c3cc(Cl)ccc3OC(C)(C)C1C2 (stereo not shown) [Example 25] | 0.07 | – | 5.7 | 0.4 | – | – | – |
| Cc1nccn1CC(=O)N1CCC2(CC1)COC1c3ccc(Cl)cc3OC(C)(C)C1C2 (stereo not shown) [Example 5] | 0.41 | – | – | < 0.3 | – | – | – |

— patent US10807993B2, “Dihydrochromene derivatives” (Sumitomo Dainippon Pharma Co., Ltd., priority 2018, dated 2020)
